Measured values as given in patent US10745395B2, “Compounds for their use as drugs for the treatment and/or the prevention of infection(s) caused by biofilm-forming bacteria” (CENTRE NATIONAL DE LA RECHERCHE SCIENTIFIQUE, priority 2014, dated 2020).

How the values were obtained:
Test in all cases: Antibiotic susceptibility test, disk diffusion (EUCAST)
Assay type in all cases: cell-based, Pseudomonas aeruginosa
Parameters in all cases: key: R means resistant to the antibiotic; S means sensitive to the antibiotic
Settings in all cases: disk load given per antibiotic
[1] = system: P. aeruginosa strain PAR 20
Procedure: (§1) All tests were performed on Pseudomonas aeruginosa strains coded: PAR 5, PAR 20, PAR 50, isolated from suppurated wounds of three male patients with chronic diabetic foot infections.
(§2) Drug resistance of the P. aeruginosa strains were tested using the disk diffusion method. Interpretation of the drug resistance of the Pseudomonas aeruginosa strains was done in accordance with the EUCAST standards (see the reference below for more information): http://www.eucast.org/fileadmin/src/media/PDFs/EUCAST_files/Breakpoint tables/Breakpoint_table_v_3.1.pdf.
(§3) To determine the drug resistance of the strains, the following antibiotics were used: amikacin, ciprofloxacin, gentamicin, piperacillin, tobramycin, ceftazidime (Oxoid, Basingstoke, UK). R means resistant to the antibiotic and S means sensitive to the antibiotic.

[2] = system: P. aeruginosa strain PAR 50
Procedure: as §1, §2, §3

[3] = system: P. aeruginosa strain PAR 5
Procedure: as §1, §2, §3

Compound	Antibiotic susceptibility (according to EUCAST) [1]	Antibiotic susceptibility (according to EUCAST) [2]	Antibiotic susceptibility (according to EUCAST) [3]
NC[C@H]1O[C@H](O[C@H]2[C@H](O)[C@@H](O[C@H]3O[C@H](CO)[C@@H](O)[C@H](N)[C@H]3O)[C@H](N)C[C@@H]2N)[C@H](N)C[C@@H]1O [Tobramycin]	S	R	S
Gentamicin	S	R	S
NCC[C@H](O)C(=O)N[C@@H]1C[C@H](N)[C@@H](O[C@H]2O[C@H](CN)[C@@H](O)[C@H](O)[C@H]2O)[C@H](O)[C@H]1O[C@H]1O[C@H](CO)[C@@H](O)[C@H](N)[C@H]1O [Amikacin]	S	R	S
O=C(O)c1cn(C2CC2)c2cc(N3CCNCC3)c(F)cc2c1=O [Ciprofloxacin]	S	S	S
CCN1CCN(C(=O)N[C@@H](C(=O)N[C@@H]2C(=O)N3[C@@H]2SC(C)(C)[C@@H]3C(=O)O)c2ccccc2)C(=O)C1=O [Piperacillin]	S	R	S
CC(C)(O/N=C(\C(=O)N[C@@H]1C(=O)N2C(C(=O)[O-])=C(C[n+]3ccccc3)CS[C@H]12)c1csc(N)n1)C(=O)O [Ceftazidime]	S	S	R
